Test results published in patent publication US9695155B2, “Herbicidal substituted pyrimidinyloxy benzene compounds” (E. I. DU PONT DE NEMOURS AND COMPANY, priority 2013, dated 2017).

Legend:
Heteranthera limosa = assay: Test B flooded paddy test; assay type: in vivo; details: Flood, 250 g ai/ha; 0 to 100 scale where 0 is no effect and 100 is complete control
How it was run: (§1)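 Plants were grown to the 2-leaf stage, then pots were flooded to 3 cm above the soil and compounds were applied directly into the paddy water. That depth was held throughout, and after 13 to 15 days in the greenhouse injury was rated visually against controls on a 0–100 scale (0 no effect, 100 complete control).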

waterhemp = assay: Test C postemergence; assay type: in vivo, Amaranthus rudis
How it was run: (§2)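 Preemergence: seeds sown in a loam soil–sand blend and sprayed with test chemical in a non-phytotoxic solvent mixture containing surfactant. Postemergence: plants at 2 to 18 cm (1- to 4-leaf stage) in peat-based medium, treated with the same formulation. Greenhouse 13 to 15 days, then visual rating 0 (no effect) to 100 (complete control).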

ragweed = assay: Test A preemergence; assay type: in vivo, Ambrosia elatior
How it was run: (§3)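 Injury scores run from 0, no effect, to 100, complete control, judged by eye against untreated plants roughly 10 days after treatment. Chemicals carried a surfactant in a non-phytotoxic solvent and went onto loam–sand soil preemergence or onto one- to two-leaf seedlings postemergence.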

corn [1] = assay: Test C preemergence; assay type: in vivo, Zea mays; details: for Corn plant response rating: preemergence
How it was run: as §2

galium [2] = assay: Test C preemergence; assay type: in vivo, Galium aparine; details: for Galium plant response rating: preemergence
How it was run: as §2

rice = assay: Test B flooded paddy test; assay type: in vivo, Oryza sativa; details: Flood, 250 g ai/ha; 0 to 100 scale where 0 is no effect and 100 is complete control
How it was run: as §1

barnyardgrass [3] = assay: Test B flooded paddy test; assay type: in vivo, Echinochloa crus-galli; details: Flood, 250 g ai/ha; 0 to 100 scale where 0 is no effect and 100 is complete control
How it was run: as §1

kochia = assay: Test A preemergence; assay type: in vivo, Kochia scoparia
How it was run: as §3

corn [4] = assay: Test C postemergence; assay type: in vivo, Zea mays
How it was run: as §2

barnyardgrass [5] = assay: Test A postemergence; assay type: in vivo, Echinochloa crus-galli
How it was run: as §3

galium [6] = assay: Test C postemergence; assay type: in vivo, Galium aparine
How it was run: as §2

Italian ryegrass [7] = assay: Test A preemergence; assay type: in vivo, Lolium multiflorum
How it was run: as §3

corn [8] = assay: Test A postemergence; assay type: in vivo, Zea mays
How it was run: as §3

Italian ryegrass [9] = assay: Test C postemergence; assay type: in vivo, Lolium multiflorum
How it was run: as §2

lambsquarters = assay: Test C postemergence; assay type: in vivo, Chenopodium album
How it was run: as §2

pigweed = assay: Test C postemergence; assay type: in vivo, Amaranthus retroflexus
How it was run: as §2

[10] = 16 g ai/ha, postemergence, 0 is no effect, 100 is complete control
[11] = 31 g ai/ha, postemergence, visual rating, scale 0 to 100 (0 no effect, 100 complete control), 13 to 15 days
[12] = 125 g ai/ha, postemergence, visual rating, scale 0 to 100 (0 no effect, 100 complete control)
[13] = Postemergence, 62 g ai/ha, scale 0 to 100 (0 no effect, 100 complete control), 13 to 15 days
[14] = 500 g ai/ha, 0 to 100 scale where 0 is no effect and 100 is complete control
[15] = 16 g ai/ha, scale 0 to 100 (0 no effect, 100 complete control)
[16] = 125 g ai/ha, scale 0 (no effect) to 100 (complete control)
[17] = Preemergence, 62 g ai/ha, scale 0 to 100, 0 no effect, 100 complete control
[18] = 125 g ai/ha, 0 to 100 scale, 0 no effect, 100 complete control

Compound: N#Cc1cnn(-c2c(Oc3ncc(F)cn3)cccc2C(F)F)c1 [Compound 240]
- Plant response rating, Ducksalad (Heteranthera limosa): 50
- Plant response rating (0 to 100), Waterhemp (waterhemp; [10]): 10
- Waterhemp plant response rating (waterhemp; [11]): 25
- Plant response rating, Waterhemp (waterhemp; [12]): 70
- Plant response rating, Waterhemp (waterhemp; [13]): 55
- Ragweed plant response rating (0 to 100 scale) (ragweed; 125 g ai/ha): 90
- Ragweed plant response rating (ragweed; [14]): 100
- Corn plant response rating (corn [1]; [15]): 5
- Corn plant response rating (corn [1]; [16]): 35
- Plant response rating, Corn (corn [1]; [17]): 5
- Galium plant response rating (galium [2]; [15]): 5
- Galium plant response rating (galium [2]; [16]): 100
- Plant response rating, Galium (galium [2]; [17]): 100
- Plant response rating, Rice (rice): 0
- Plant response rating, Barnyardgrass (barnyardgrass [3]): 0
- Kochia plant response rating (0 to 100 scale) (kochia; 125 g ai/ha): 100
- Kochia plant response rating (kochia; [14]): 100
- Plant response rating (0 to 100), Corn (corn [4]; [10]): 0
- Corn plant response rating (corn [4]; [11]): 5
- Plant response rating, Corn (corn [4]; [12]): 15
- Plant response rating, Corn (corn [4]; [13]): 5
- Plant response rating, Barnyardgrass (barnyardgrass [5]; [18]): 90
- Plant response rating, Barnyardgrass (barnyardgrass [5]; [14]): 100
- Plant response rating (0 to 100), Galium (galium [6]; [10]): 35
- Galium plant response rating (galium [6]; [11]): 40
- Plant response rating, Galium (galium [6]; [12]): 70
- Plant response rating, Galium (galium [6]; [13]): 55
- Ryegrass, Italian plant response rating (0 to 100 scale) (Italian ryegrass [7]; 125 g ai/ha): 20
- Ryegrass, Italian plant response rating (Italian ryegrass [7]; [14]): 70
- Plant response rating, Corn (corn [8]; [18]): 30
- Plant response rating, Corn (corn [8]; [14]): 90
- Plant response rating (0 to 100), Ryegrass, Italian (Italian ryegrass [9]; [10]): 0
- Ryegrass, Italian plant response rating (Italian ryegrass [9]; [11]): 0
- Plant response rating, Ryegrass, Italian (Italian ryegrass [9]; [12]): 0
- Plant response rating, Ryegrass, Italian (Italian ryegrass [9]; [13]): 0
- Plant response rating (0 to 100), Lambsquarters (lambsquarters; [10]): 15
- Lambsquarters plant response rating (lambsquarters; [11]): 45
- Plant response rating, Lambsquarters (lambsquarters; [12]): 90
- Plant response rating, Lambsquarters (lambsquarters; [13]): 75
- Plant response rating (0 to 100), Pigweed (pigweed; [10]): 15
- Pigweed plant response rating (pigweed; [11]): 30
- Plant response rating, Pigweed (pigweed; [12]): 75
- Plant response rating, Pigweed (pigweed; [13]): 45
